Test results taken from US4360665A, “4"-N-(Substituted)-apramycin antibiotic derivatives and intermediates therefor” (Eli Lilly and Company, priority 1981, dated 1982).
Read-outs that look alike come from different tables or passages of the source.

Experiments:
Assay in all cases: MIC by standard agar dilution test
Assay type in all cases: cell-based
Proteus inconstans PR33 = conditions: Providencia alcalifaciens, Table 1, read-out: Minimum Inhibitory Concentration
Description: (§1) The antibacterial activity of the antibiotic compounds of this invention is illustrated by the following in vitro and in vivo test data obtained with representative compounds. In Tables I and II, the minimum inhibitory concentration (MIC) for representative compounds against a wide range of gram-positive and gram-negative bacteria are presented. The MIC values were obtained by the standard agar dilution test.

[1] = tested on: Enterobacter aerogenes EB17; conditions: Klebsiella aerogenes, Table 1, read-out: Minimum Inhibitory Concentration
Description: as §1

[2] = tested on: Salmonella heidelberg X514; conditions: Salmonella enterica, Table 1, read-out: Minimum Inhibitory Concentration
Description: as §1

Serratia marcescens SE3 = tested on: Serratia marcescens SE3
Description: as §1

[3] = tested on: Enterobacter aerogenes C32; conditions: Klebsiella aerogenes, Table 1, read-out: Minimum Inhibitory Concentration
Description: as §1

[4] = tested on: Streptococcus pyogenes C203; conditions: Table 1, read-out: Minimum Inhibitory Concentration
Description: as §1

[5] = tested on: Streptococcus group D 9960; conditions: D9960, Table 1, read-out: Minimum Inhibitory Concentration
Description: as §1

[6] = tested on: Pseudomonas aeruginosa PI23; conditions: Table II, read-out: Minimum Inhibitory Concentration
Description: as §1

[7] = tested on: Citrobacter freundii CF17; conditions: Table 1, read-out: Minimum Inhibitory Concentration
Description: as §1

[8] = tested on: Staphylococcus epidermidis EPI2; conditions: Table 1, read-out: Minimum Inhibitory Concentration
Description: as §1

[9] = tested on: Pseudomonas aeruginosa Ps18; conditions: Pseudomonas aeruginosa, PS18, read-out: Minimum Inhibitory Concentration
Description: as §1

[10] = tested on: Salmonella typhimurium 1335; conditions: Salmonella enterica, Table 1, read-out: Minimum Inhibitory Concentration
Description: as §1

[11] = tested on: Staphylococcus aureus S13E; conditions: read-out: Minimum Inhibitory Concentration
Description: as §1

[12] = tested on: Pseudomonas aeruginosa SF-2; conditions: SF2, Table II, read-out: Minimum Inhibitory Concentration
Description: as §1

[13] = tested on: Staphylococcus epidermidis EPI1; conditions: Table 1, read-out: Minimum Inhibitory Concentration
Description: as §1

[14] = tested on: Bordetella bronchiseptica 16; conditions: Table 1; Bordetella bronchiseptica 16; agar dilution; read-out: Minimum Inhibitory Concentration
Description: as §1

Shigella sonnei N9 = conditions: Table 1, read-out: Minimum Inhibitory Concentration
Description: as §1

[15] = tested on: Pseudomonas aeruginosa Ps25; conditions: Table II, read-out: Minimum Inhibitory Concentration
Description: as §1

[16] = tested on: Haemophilus influenzae HOLT; conditions: Table 1, read-out: Minimum Inhibitory Concentration
Description: as §1

[17] = tested on: Pseudomonas aeruginosa X528
Description: as §1

[18] = tested on: Enterobacter aerogenes EB6; conditions: Klebsiella aerogenes
Description: as §1

[19] = tested on: Streptococcus pneumoniae Park 1; conditions: PARK1, Table 1, read-out: Minimum Inhibitory Concentration
Description: as §1

Proteus rettgeri C24 = conditions: Providencia rettgeri, Table 1, read-out: Minimum Inhibitory Concentration
Description: as §1

[20] = tested on: Haemophilus influenzae R252; conditions: Haemophilus influenzae, R252, read-out: Minimum Inhibitory Concentration
Description: as §1

[21] = tested on: Staphylococcus aureus V41; conditions: Table 1, read-out: Minimum Inhibitory Concentration
Description: as §1

[22] = tested on: Pseudomonas aeruginosa Ps15; conditions: Table II, read-out: Minimum Inhibitory Concentration
Description: as §1

[23] = tested on: Klebsiella pneumoniae X26; conditions: Table 1, read-out: Minimum Inhibitory Concentration
Description: as §1

[24] = tested on: Streptococcus group D X66; conditions: DX66, Table 1, read-out: Minimum Inhibitory Concentration
Description: as §1

Escherichia coli TEM = conditions: read-out: Minimum Inhibitory Concentration
Description: as §1

[25] = tested on: Pseudomonas aeruginosa Ps9; conditions: Table II, read-out: Minimum Inhibitory Concentration
Description: as §1

Proteus rettgeri PR7 = conditions: Providencia rettgeri, Table 1, read-out: Minimum Inhibitory Concentration
Description: as §1

[26] = tested on: Enterobacter cloacae EN453; conditions: Table II, read-out: Minimum Inhibitory Concentration
Description: as §1

[27] = tested on: Enterobacter aerogenes X68; conditions: Klebsiella aerogenes, Table 1, read-out: Minimum Inhibitory Concentration
Description: as §1

[28] = tested on: Pseudomonas aeruginosa X239
Description: as §1

[29] = tested on: Staphylococcus aureus X400; conditions: Table 1, read-out: Minimum Inhibitory Concentration
Description: as §1

Proteus morganii PR15 = conditions: Morganella morganii, Table 1, read-out: Minimum Inhibitory Concentration
Description: as §1

Serratia marcescens SE2 = conditions: Table II, read-out: Minimum Inhibitory Concentration
Description: as §1

[30] = tested on: Staphylococcus aureus X1.1; conditions: Table 1, read-out: Minimum Inhibitory Concentration
Description: as §1

Proteus inconstans PV25 = conditions: Providencia alcalifaciens, Table II, read-out: Minimum Inhibitory Concentration
Description: as §1

[31] = tested on: Enterobacter cloacae EB24
Description: as §1

[32] = tested on: Klebsiella pneumoniae KAE; conditions: Table 1, read-out: Minimum Inhibitory Concentration
Description: as §1

[33] = tested on: Enterobacter cloacae 265A; conditions: Table 1, read-out: Minimum Inhibitory Concentration
Description: as §1

[34] = tested on: Pseudomonas aeruginosa 4276; conditions: Table II, read-out: Minimum Inhibitory Concentration
Description: as §1

Escherichia coli N10 = conditions: Table 1, read-out: Minimum Inhibitory Concentration
Description: as §1

Proteus morganii PR1 = conditions: Morganella morganii, Table II, read-out: Minimum Inhibitory Concentration
Description: as §1

Enterobacter cloacae EB5 = conditions: Table 1, read-out: Minimum Inhibitory Concentration
Description: as §1

Proteus rettgeri PR2 = conditions: Providencia rettgeri, Table II, read-out: Minimum Inhibitory Concentration
Description: as §1

[35] = tested on: Klebsiella pneumoniae KL2; conditions: Table II, read-out: Minimum Inhibitory Concentration
Description: as §1

Escherichia coli EC14 = conditions: Table 1, read-out: Minimum Inhibitory Concentration
Description: as §1

Serratia marcescens X99 = tested on: Serratia marcescens X99
Description: as §1

[36] = tested on: Pseudomonas aeruginosa X48; conditions: Table II, read-out: Minimum Inhibitory Concentration
Description: as §1

[37] = SE3, Table II, read-out: Minimum Inhibitory Concentration
[38] = X239, Table II, read-out: Minimum Inhibitory Concentration
[39] = X99, Table II, read-out: Minimum Inhibitory Concentration

CCN[C@H]1[C@H](O)[C@@H](O)[C@@H](O[C@H]2O[C@H]3C[C@@H](N)[C@@H](O[C@H]4[C@H](O)[C@@H](O)[C@H](N)C[C@@H]4N)O[C@@H]3[C@H](O)[C@@H]2NC)O[C@@H]1CO [Test Compound 2, 4"-N-Ethylapramycin]
> 128 µg/mL: MIC [5] | MIC [6] | MIC [24]
32 µg/mL: MIC [4] | MIC [8] | MIC [14] | MIC ([17]; Table 1, read-out: Minimum Inhibitory Concentration) | Minimum Inhibitory Concentration ([17]; Table II) | MIC [19] | MIC [29]
4 µg/mL: MIC (Proteus inconstans PR33) | MIC [1] | MIC (Serratia marcescens SE3; [37]) | MIC [9] | MIC (Escherichia coli TEM) | MIC [26] | MIC (Serratia marcescens SE2) | MIC (Proteus inconstans PV25) | MIC ([31]; Table II, Enterobacter cloacae EB24, agar dilution, read-out: Minimum Inhibitory Concentration) | MIC (Proteus morganii PR1) | MIC [35]
16 µg/mL: MIC [2] | MIC (Serratia marcescens SE3; SE3, Table 1, read-out: Minimum Inhibitory Concentration) | MIC [7] | MIC [10] | MIC [11] | MIC [12] | MIC (Shigella sonnei N9) | MIC [15] | MIC [21] | MIC [22] | MIC ([28]; X239, Table 1, read-out: Minimum Inhibitory Concentration) | MIC [28, 38] | MIC (Proteus morganii PR15) | MIC (Escherichia coli N10) | MIC (Enterobacter cloacae EB5)
1 µg/mL: MIC [20]
8 µg/mL: MIC [3] | MIC [13] | MIC (Proteus rettgeri C24) | MIC [23] | MIC (Proteus rettgeri PR7) | MIC [27] | MIC [30] | MIC [32] | MIC [33] | MIC [34] | MIC (Proteus rettgeri PR2) | MIC (Escherichia coli EC14) | MIC (Serratia marcescens X99; X99, Table 1, read-out: Minimum Inhibitory Concentration)
64 µg/mL: MIC [25]
2 µg/mL: MIC [16] | MIC ([18]; EB6, read-out: Minimum Inhibitory Concentration) | MIC (Serratia marcescens X99; [39])

CN[C@@H]1[C@@H](O[C@H]2O[C@H](CO)[C@@H](NCc3ccccc3)[C@H](O)[C@H]2O)O[C@H]2C[C@@H](N)[C@@H](O[C@H]3[C@H](O)[C@@H](O)[C@H](N)C[C@@H]3N)O[C@@H]2[C@@H]1O [Test Compound 3, 4"-N-Benzylapramycin]
4 µg/mL: MIC ([31]; Enterobacter cloacae, EB24, read-out: Minimum Inhibitory Concentration) | MIC (Serratia marcescens X99; [39])
> 128 µg/mL: MIC [6] | MIC ([17]; Table II, read-out: Minimum Inhibitory Concentration) | MIC [25] | MIC [34] | MIC (Proteus rettgeri PR2) | MIC [36]
8 µg/mL: MIC (Serratia marcescens SE3; [37]) | MIC ([18]; Table II, Enterobacter aerogenes EB6, agar dilution, read-out: Minimum Inhibitory Concentration) | MIC [26] | MIC [35]
64 µg/mL: MIC [15] | MIC (Proteus inconstans PV25)
16 µg/mL: MIC (Serratia marcescens SE2)
32 µg/mL: MIC (Proteus morganii PR1)
128 µg/mL: MIC [12] | MIC [22] | MIC [28, 38]
